From ChEMBL document CHEMBL1275601, “Striking species difference in the contribution of concentrative nucleoside transporter 2 to nucleoside uptake between mouse and rat hepatocytes” (Antimicrob Agents Chemother, 2010)
Calls of active or inactive are those of the source. The calls are words filed in the database; no cut-off is given here.

Tests used:
Format in all cases: cell-based
[1] = biological target: T1, Equilibrative nucleoside transporter 1 (Mus musculus) (UniProt Q9JIM1); assay: Transport through ENT1 in mouse hepatocytes by oil filtration assay in presence of sodium ions in Kreb-henseleit buffer; conditions: Hepatocyte
T1 sequence (whole entry): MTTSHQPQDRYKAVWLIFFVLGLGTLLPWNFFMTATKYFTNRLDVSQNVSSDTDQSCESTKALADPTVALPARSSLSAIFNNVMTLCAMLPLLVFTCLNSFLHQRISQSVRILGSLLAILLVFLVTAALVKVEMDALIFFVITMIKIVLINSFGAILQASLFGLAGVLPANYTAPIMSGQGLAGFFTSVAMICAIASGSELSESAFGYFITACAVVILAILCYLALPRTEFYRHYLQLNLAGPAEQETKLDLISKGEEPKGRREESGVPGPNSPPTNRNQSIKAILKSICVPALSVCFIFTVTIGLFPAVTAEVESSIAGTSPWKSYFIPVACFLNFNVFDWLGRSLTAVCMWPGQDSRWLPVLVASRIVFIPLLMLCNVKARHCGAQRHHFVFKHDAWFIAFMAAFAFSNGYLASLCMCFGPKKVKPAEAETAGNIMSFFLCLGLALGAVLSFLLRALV

[2] = biological target: T2, Equilibrative nucleoside transporter 2 (Mus musculus) (UniProt Q61672); assay: Transport through ENT2 in mouse hepatocytes by oil filtration assay in presence of sodium ions in Kreb-henseleit buffer; conditions: Hepatocyte
T2 sequence (whole entry): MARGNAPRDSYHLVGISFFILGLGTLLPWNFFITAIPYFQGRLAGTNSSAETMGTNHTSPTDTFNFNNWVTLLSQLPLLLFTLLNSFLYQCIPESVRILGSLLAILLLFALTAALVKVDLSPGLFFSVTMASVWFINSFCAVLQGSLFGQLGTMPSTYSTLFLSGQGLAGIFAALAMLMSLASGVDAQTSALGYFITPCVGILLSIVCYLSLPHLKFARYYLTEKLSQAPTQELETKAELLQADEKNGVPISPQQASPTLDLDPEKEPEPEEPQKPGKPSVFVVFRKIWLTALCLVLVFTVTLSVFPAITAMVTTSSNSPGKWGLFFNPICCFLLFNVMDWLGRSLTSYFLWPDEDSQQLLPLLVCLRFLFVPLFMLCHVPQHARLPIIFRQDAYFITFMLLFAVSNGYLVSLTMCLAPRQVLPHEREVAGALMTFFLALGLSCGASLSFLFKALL

Hepatocyte [3] = assay: Transport through CNT1 in mouse hepatocytes by oil filtration assay in presence of sodium ions in Kreb-henseleit buffer
[4] = biological target: T3, Sodium/nucleoside cotransporter 2 (Rattus norvegicus) (UniProt Q62773); assay: Transport through CNT2 in rat hepatocytes by oil filtration assay in presence of sodium ions in Kreb-henseleit buffer; conditions: Hepatocyte
T3 sequence (whole entry): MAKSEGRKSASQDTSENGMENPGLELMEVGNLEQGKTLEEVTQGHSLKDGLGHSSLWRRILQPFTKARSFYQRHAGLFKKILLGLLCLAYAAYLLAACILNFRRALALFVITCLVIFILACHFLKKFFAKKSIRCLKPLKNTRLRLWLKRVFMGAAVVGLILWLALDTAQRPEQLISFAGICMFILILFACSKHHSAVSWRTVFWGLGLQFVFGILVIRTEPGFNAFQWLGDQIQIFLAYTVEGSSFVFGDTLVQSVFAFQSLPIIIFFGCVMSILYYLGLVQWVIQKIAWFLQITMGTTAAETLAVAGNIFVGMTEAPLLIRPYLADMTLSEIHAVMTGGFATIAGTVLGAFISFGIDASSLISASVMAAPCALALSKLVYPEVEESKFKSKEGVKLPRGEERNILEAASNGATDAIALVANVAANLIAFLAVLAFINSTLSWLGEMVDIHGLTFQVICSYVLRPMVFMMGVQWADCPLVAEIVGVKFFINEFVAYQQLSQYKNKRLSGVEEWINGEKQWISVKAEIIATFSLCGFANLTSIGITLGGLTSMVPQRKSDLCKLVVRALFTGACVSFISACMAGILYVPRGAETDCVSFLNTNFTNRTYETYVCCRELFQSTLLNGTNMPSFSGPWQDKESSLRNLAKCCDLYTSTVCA

[5] = biological target: T4, Equilibrative nucleoside transporter 1 (Rattus norvegicus) (UniProt O54698); assay: Transport through ENT1 in rat hepatocytes by oil filtration assay; conditions: Hepatocyte
T4 sequence (whole entry): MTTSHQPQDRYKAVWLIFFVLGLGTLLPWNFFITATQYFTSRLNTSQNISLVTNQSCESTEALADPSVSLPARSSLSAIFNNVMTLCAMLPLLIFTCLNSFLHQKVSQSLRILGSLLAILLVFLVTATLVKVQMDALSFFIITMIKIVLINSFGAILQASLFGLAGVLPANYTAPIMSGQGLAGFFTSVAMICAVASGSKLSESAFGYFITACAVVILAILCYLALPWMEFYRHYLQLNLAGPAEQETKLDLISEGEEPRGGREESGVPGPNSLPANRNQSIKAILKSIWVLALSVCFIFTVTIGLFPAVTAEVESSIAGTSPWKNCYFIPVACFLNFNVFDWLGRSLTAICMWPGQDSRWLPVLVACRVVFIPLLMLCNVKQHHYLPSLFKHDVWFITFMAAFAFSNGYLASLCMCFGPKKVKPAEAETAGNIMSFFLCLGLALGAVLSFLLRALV

[6] = biological target: T5, Equilibrative nucleoside transporter 2 (Rattus norvegicus) (UniProt O54699); assay: Transport through ENT2 in rat hepatocytes by oil filtration assay; conditions: Hepatocyte
T5 sequence (whole entry): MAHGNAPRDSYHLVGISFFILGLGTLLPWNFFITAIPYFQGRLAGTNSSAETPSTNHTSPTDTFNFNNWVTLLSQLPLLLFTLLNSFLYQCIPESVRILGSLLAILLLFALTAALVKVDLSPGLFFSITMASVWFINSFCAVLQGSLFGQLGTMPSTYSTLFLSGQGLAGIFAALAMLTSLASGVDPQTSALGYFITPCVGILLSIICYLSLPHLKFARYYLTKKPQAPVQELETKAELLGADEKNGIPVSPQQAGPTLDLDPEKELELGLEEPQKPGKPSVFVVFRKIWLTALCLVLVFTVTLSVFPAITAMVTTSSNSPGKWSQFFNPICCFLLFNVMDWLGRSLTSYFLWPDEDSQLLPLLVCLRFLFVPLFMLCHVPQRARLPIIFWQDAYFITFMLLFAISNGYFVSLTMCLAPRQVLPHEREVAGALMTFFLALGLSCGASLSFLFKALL

[7] = biological target: T3, Sodium/nucleoside cotransporter 2 (Rattus norvegicus); assay: Transport through CNT2 in rat hepatocytes by oil filtration assay; conditions: Hepatocyte
Hepatocyte [8] = assay: Transport through CNT3 in rat hepatocytes by oil filtration assay
[9] = biological target: T4, Equilibrative nucleoside transporter 1 (Rattus norvegicus); assay: Transport through ENT1 in rat hepatocytes by oil filtration assay in presence of sodium ions in Kreb-henseleit buffer containing 100 uM NBMPR and 1 mM uridine; conditions: Hepatocyte
Hepatocyte [10] = assay: Transport through CNT3 in rat hepatocytes by oil filtration assay in presence of sodium ions in Kreb-henseleit buffer containing 100 uM NBMPR and 1 mM uridine
[11] = biological target: T1, Equilibrative nucleoside transporter 1 (Mus musculus); assay: Transport through ENT1 in mouse hepatocytes by oil filtration assay in presence 100 nM of transporter inhibitor NBMRP; conditions: Hepatocyte
[12] = biological target: T2, Equilibrative nucleoside transporter 2 (Mus musculus); assay: Transport through ENT2 in mouse hepatocytes by oil filtration assay in presence 100 uM of transporter inhibitor NBMRP; conditions: Hepatocyte

| Compound | Activity [1] | Activity [2] | Activity (Hepatocyte [3]) | Activity [4] | Activity [5] | Activity [6] | Activity [7] | Activity (Hepatocyte [8]) | Activity [9] | Activity (Hepatocyte [10]) | Activity [11] | Activity [12] |
| --- | --- | --- | --- | --- | --- | --- | --- | --- | --- | --- | --- | --- |
| Nc1ncnc2c1ncn2[C@@H]1O[C@H](CO)[C@@H](O)[C@H]1O | inactive | inactive | inactive | Active | inactive | inactive | inactive | inactive | inactive | inactive | inactive | inactive |
| NC(=O)c1ncn([C@@H]2O[C@H](CO)[C@@H](O)[C@H]2O)n1 | inactive | inactive | inactive | Active | Active | Active | Active | Active | inactive | inactive | inactive | inactive |
